Assay results from US11168073B2, “3,3-difluoroallylamines or salts thereof and pharmaceutical compositions comprising the same” (YUHAN CORPORATION, priority 2018, dated 2021).
Where a name gives a salt, the structure may show the parent alone.

What was measured:
Type in all cases: biochemical
recombinant human VAP-1 = biological target: T1, recombinant human VAP-1 (Homo sapiens, UniProt Q16853); experiment: Activity evaluation on recombinant human VAP-1 (Amplex Red/HRP-coupled hydrogen peroxide assay, benzylamine substrate); conditions: recombinant human VAP-1, benzylamine substrate; read-out: Inhibitory Activity (IC50, nM) human VAP-1
T1 construct: purchased R&D systems
T1 sequence (Q16853 1-763): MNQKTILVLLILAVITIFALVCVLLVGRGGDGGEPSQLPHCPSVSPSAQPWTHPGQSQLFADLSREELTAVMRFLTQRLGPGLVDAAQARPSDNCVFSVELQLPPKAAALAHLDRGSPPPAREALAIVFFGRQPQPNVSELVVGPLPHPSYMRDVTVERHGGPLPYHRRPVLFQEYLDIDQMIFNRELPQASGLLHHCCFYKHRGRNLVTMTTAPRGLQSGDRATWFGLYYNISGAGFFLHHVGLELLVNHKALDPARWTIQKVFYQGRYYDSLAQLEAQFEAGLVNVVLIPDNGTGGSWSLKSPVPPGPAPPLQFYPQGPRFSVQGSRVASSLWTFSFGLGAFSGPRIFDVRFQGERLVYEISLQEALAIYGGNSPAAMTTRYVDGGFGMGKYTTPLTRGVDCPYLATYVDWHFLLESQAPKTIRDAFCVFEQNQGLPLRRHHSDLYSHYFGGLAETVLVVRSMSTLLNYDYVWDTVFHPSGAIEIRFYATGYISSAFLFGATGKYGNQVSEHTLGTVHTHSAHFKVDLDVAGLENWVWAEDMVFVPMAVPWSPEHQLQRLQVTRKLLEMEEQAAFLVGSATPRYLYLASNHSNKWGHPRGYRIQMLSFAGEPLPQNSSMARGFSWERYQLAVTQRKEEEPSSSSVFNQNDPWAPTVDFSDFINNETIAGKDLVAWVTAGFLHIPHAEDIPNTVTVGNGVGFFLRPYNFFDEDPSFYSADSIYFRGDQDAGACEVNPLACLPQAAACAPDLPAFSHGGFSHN
In short: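 Recombinant human VAP-1 in 50 mM sodium phosphate pH 7.4 preincubated 30 min at 37 °C with compound (8-point 1:3 series, <1% DMSO), then 1 mM benzylamine, 200 uM Amplex Red, 1 U/mL HRP added. H2O2-derived resorufin fluorescence (ex 544/em 590) followed 1–2 h; IC50 from four-parameter fit of rate inhibition.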

[1] = biological target: T2, recombinant human MAO-A (monoamine oxidase-A) (Homo sapiens, UniProt P21397); experiment: Activity evaluation on recombinant human MAO-A (Amplex Red/HRP-coupled assay, 0.5 mM tyramine substrate); conditions: 0.5 mM tyramine substrate, read-out: Inhibitory Activity (IC50, nM) MAO-A
T2 construct: purchased Sigma-Aldrich
T2 sequence (P21397 1-527): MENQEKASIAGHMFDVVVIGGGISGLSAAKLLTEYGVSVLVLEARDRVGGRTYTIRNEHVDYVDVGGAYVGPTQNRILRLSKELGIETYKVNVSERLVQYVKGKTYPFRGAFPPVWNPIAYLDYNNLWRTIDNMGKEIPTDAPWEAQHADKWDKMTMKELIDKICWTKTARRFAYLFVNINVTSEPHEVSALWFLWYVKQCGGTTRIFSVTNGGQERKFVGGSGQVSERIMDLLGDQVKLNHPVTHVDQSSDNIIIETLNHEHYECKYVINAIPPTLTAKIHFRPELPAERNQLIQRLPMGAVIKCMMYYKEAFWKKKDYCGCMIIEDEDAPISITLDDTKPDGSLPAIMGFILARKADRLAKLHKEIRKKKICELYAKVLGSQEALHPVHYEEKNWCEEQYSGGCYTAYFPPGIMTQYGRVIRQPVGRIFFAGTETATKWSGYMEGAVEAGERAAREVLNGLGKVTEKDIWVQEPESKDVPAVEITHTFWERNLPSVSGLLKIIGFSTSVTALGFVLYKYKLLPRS
In short: (§1)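 Enzyme was preincubated with compounds (8-point 1:3 series, final DMSO <1%) 30 min at 37 °C in 50 mM sodium phosphate pH 7.4, then given 200 uM Amplex Red and 1 U/mL HRP with substrate. H2O2-derived resorufin fluorescence (ex 544/em 590 nm) was followed over 1–2 h; IC50 came from 4-parameter logistic fits of signal-rate inhibition versus DMSO control.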

[2] = biological target: T3, recombinant human MAO-B (monoamine oxidase-B) (Homo sapiens, UniProt P27338); experiment: Activity evaluation on recombinant human MAO-B (Amplex Red/HRP-coupled assay, 1 mM benzylamine substrate); conditions: 1 mM benzylamine substrate, read-out: Inhibitory Activity (IC50, nM) MAO-B
T3 construct: purchased Sigma-Aldrich
T3 sequence (P27338 1-520): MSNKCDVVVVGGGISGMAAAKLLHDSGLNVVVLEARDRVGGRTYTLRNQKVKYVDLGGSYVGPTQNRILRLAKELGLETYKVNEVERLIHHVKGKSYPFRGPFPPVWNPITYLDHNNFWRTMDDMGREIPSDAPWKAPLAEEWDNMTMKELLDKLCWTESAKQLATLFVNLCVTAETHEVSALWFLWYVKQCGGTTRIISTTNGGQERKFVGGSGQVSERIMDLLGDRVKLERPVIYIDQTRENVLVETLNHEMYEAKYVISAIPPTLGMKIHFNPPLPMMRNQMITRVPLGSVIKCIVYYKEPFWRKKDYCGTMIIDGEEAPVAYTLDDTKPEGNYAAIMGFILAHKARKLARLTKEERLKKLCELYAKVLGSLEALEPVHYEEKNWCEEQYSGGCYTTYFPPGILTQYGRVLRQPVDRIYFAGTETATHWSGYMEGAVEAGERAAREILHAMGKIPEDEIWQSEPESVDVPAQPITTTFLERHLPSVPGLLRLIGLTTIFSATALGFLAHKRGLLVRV
In short: as §1

[3] = biological target: T4, recombinant human DAO (diamine oxidase) (Homo sapiens, UniProt P19801); experiment: Activity evaluation on recombinant human DAO (Amplex Red/HRP-coupled assay, 1 mM putrescine substrate); conditions: 1 mM putrescine substrate, read-out: Inhibitory Activity (IC50, nM) DAO
T4 construct: purchased R&D systems
T4 sequence (P19801 20-751): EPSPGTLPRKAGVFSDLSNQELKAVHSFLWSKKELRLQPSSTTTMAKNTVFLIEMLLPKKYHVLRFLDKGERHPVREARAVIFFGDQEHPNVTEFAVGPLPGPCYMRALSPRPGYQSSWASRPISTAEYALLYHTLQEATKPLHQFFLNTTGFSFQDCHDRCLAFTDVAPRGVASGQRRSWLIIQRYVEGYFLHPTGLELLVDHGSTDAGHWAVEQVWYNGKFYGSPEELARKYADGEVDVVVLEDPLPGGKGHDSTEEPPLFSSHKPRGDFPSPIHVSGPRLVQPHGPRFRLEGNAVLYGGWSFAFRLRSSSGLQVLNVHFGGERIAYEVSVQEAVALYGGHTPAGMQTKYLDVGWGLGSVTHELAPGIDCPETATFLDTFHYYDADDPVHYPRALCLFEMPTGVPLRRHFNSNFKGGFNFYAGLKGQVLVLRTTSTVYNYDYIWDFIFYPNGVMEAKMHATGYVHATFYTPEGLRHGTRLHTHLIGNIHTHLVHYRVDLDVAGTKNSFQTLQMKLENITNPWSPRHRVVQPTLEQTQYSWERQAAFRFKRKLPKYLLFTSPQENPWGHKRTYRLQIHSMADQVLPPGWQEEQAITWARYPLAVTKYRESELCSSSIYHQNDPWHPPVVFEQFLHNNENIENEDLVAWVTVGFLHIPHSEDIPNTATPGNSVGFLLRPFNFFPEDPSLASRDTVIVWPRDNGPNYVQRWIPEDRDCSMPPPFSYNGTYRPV
In short: as §1

Structure (SMILES) | IC50 (recombinant human VAP-1) | IC50 [1] | IC50 [2] | IC50 [3]
NCC(Cn1ncn(Cc2ccc(-c3ccc4c(c3)OCO4)cc2)c1=O)=C(F)F [Example 268, 2-[2-(aminomethyl)-3,3-difluoro-allyl]-4-[[4-(1,3-benzodioxol-5-yl)phenyl]methyl]-1,2,4-triazol-3-one Trifluoroacetate] | 2.1 nM | > 100000 nM | 1870 nM | > 100000 nM
Cc1cc(-c2ccc(Cn3cnn(CC(CN)=C(F)F)c3=O)cc2)cc2c1NC(=O)CC2 [Example 269, 6-[4-[[1-[2-(aminomethyl)-3,3-difluoro-allyl]-5-oxo-1,2,4-triazol-4-yl]methyl]phenyl]-8-methyl-3,4-dihydro-1H-quinolin-2-one Trifluoroacetate] | 1 nM | > 100000 nM | > 100000 nM | 71000 nM
CCn1cc(-c2cccc(Cn3cnn(CC(CN)=C(F)F)c3=O)c2)cn1 [Example 271, 2-[2-(aminomethyl)-3,3-difluoro-allyl]-4-[[3-(1-ethylpyrazol-4-yl)phenyl]methyl]-1,2,4-triazol-3-one Trifluoroacetate] | 2.2 nM | > 100000 nM | 1590 nM | > 100000 nM
CN(C)c1ccc(-c2cccc(Cn3cnn(CC(CN)=C(F)F)c3=O)c2)cn1 [Example 273, 2-[2-(aminomethyl)-3,3-difluoro-allyl]-4-[[3-[6-(dimethylamino)-3-pyridyl]phenyl]methyl]-1,2,4-triazol-3-one Trifluoroacetate] | 1.8 nM | > 100000 nM | 2900 nM | 39300 nM
NCC(Cn1ncn(Cc2cccc(-c3ccc4c(c3)OCO4)c2)c1=O)=C(F)F [Example 274, 2-[2-(aminomethyl)-3,3-difluoro-allyl]-4-[[3-(1,3-benzodioxol-5-yl)phenyl]methyl]-1,2,4-triazol-3-one Trifluoroacetate] | 3.1 nM | > 100000 nM | 125 nM | 54100 nM
Cc1cc(-c2cccc(Cn3cnn(CC(CN)=C(F)F)c3=O)c2)cc2c1NC(=O)CC2 [Example 275, 6-[3-[[1-[2-(aminomethyl)-3,3-difluoro-allyl]-5-oxo-1,2,4-triazol-4-yl]methyl]phenyl]-8-methyl-3,4-dihydro-1H-quinolin-2-one Trifluoroacetate] | 0.9 nM | > 100000 nM | 25400 nM | 5160 nM

More lines, in order of falling IC50 (recombinant human VAP-1), values ahead:

IC50 (recombinant human VAP-1) | IC50 [1] | IC50 [2] | IC50 [3] | Structure (SMILES)
3.2 nM | > 100000 nM | 23800 nM | 4330 nM | CS(=O)(=O)c1ccc(-c2cccc(Cn3cnn(CC(CN)=C(F)F)c3=O)c2)cc1 [Example 272, 2-[2-(aminomethyl)-3,3-difluoro-allyl]-4-[[3-(4-methylsulfonylphenyl)phenyl]methyl]-1,2,4-triazol-3-one Trifluoroacetate]
2.5 nM | > 100000 nM | 68600 nM | 1810 nM | CCn1cc(-c2cccc(Cn3cnn(CC(CN)=C(F)F)c3=O)c2)ccc1=O [Example 277, 5-[3-[[1-[2-(aminomethyl)-3,3-difluoro-allyl]-5-oxo-1,2,4-triazol-4-yl]methyl]phenyl]-1-ethyl-pyridin-2-one Trifluoroacetate]
0.6 nM | > 100000 nM | > 100000 nM | > 100000 nM | CCn1cc(-c2ccc(Cn3cnn(CC(CN)=C(F)F)c3=O)cc2)ccc1=O [Example 270, 5-[4-[[1-[2-(aminomethyl)-3,3-difluoro-allyl]-5-oxo-1,2,4-triazol-4-yl]methyl]phenyl]-1-ethyl-pyridin-2-one Trifluoroacetate]
0.5 nM | > 100000 nM | 2250 nM | 3080 nM | CN1C(=O)CCc2cc(-c3cccc(Cn4cnn(CC(CN)=C(F)F)c4=O)c3)ccc21 [Example 276, 6-[3-[[1-[2-(aminomethyl)-3,3-difluoro-allyl]-5-oxo-1,2,4-triazol-4-yl]methyl]phenyl]-1-methyl-3,4-dihydroquinolin-2-one Trifluoroacetate]
